Laboratory results taken from publication PMC9386018, “A lymphatic-absorbed multi-targeted kinase inhibitor for myelofibrosis therapy” (Nature Communications, 2022).

Experiments:
[1] = test system: pAKT (pS473) in splenocytes; experiment: MPL^W515L MF mouse model: pAKT in splenocytes by flow cytometry; assay type: in vivo; settings: MPL^W515L mice, oral 400 mg kg^−1 daily, 28 d
Procedure: (§1) The human megakaryoblastic cell line, SET-2 (ATCC), was maintained in RPMI 1640 supplemented with 20% FBS and incubated for 16 h at 10^6 cells mL^−1 with LP-182 or vehicle (DMSO; dimethyl sulfoxide), then washed in ice-cold PBS, and collected for flow cytometry analysis. Single-cell suspensions of mouse spleen were prepared from MPL^W515L MF mice (below) in RPMI 1640 supplemented with 5% FCS. Red blood cells were lysed by ammonium chloride-mediated red cell lysis (RCL) buffer and passed through a nylon mesh, and then cells were counted. For intracellular phospho-protein staining, SET-2 or spleen cells were fixed and then permeabilized using BD Phospho-flow fixation buffer and Perm-Buffer III (BD biosciences) according to the manufacturer’s protocol. Intracellular phospho-protein staining was performed using fluorochrome-conjugated antibodies, pAKT (pS473)-Alexa Fluor 647 (MB89-61) or pERK1/2 (pT202/pY204)-Alexa Fluor 647 (20 A). […] Flow cytometry was performed on a FACS Fortessa (Becton, Dickinson and Co.) using FACSDiVa software, and data analyzed using FlowJo software (Tree Star). […]
(§2) Generation of the MPL^W515L mutant MF mouse model was similar to previously described methods. […] Development of MF was evaluated by spleen volumes using MRI beginning ~14 d following bone marrow transplantation (BMT) as outlined below, continuing weekly until end of the study. […]

[2] = test system: pERK1/2 (pT202/pY204) in splenocytes; experiment: MPL^W515L MF mouse model: pERK1/2 in splenocytes by flow cytometry; assay type: in vivo; settings: MPL^W515L mice, oral 400 mg kg^−1 daily, 28 d
Procedure: as §1, §2

For `O=C(NOCCOCCOCCOCCC(=O)N1CCN(c2cnc3ccc(-c4cnc(Cl)c(NS(=O)(=O)c5ccc(F)cc5)c4)cc3n2)CC1)c1ccc(F)c(F)c1Nc1ccc(I)cc1F` [LP-182, N-(2-(2-(2-(3-(4-(7-(6-chloro-5-((4-fluorophenyl)sulfonamido)pyridin-3-yl)quinoxalin-2-yl)piperazin-1-yl)-3-oxopropoxy)ethoxy)ethoxy)ethoxy)-3,4-difluoro-2-((2-fluoro-4-iodophenyl)amino)benzamide], the “active AKT level in splenocytes” value [1] was “reduced active AKT and ERK1/2 levels to those comparable to healthy control mice” and the “active ERK1/2 level in splenocytes” value [2] was “reduced active AKT and ERK1/2 levels to those comparable to healthy control mice”.
